# Assays:
# [1] = target: T1, human FFAR1 (GPR40) (Homo sapiens, UniProt O14842); experiment: NFAT-RE-based reporter gene activity assay (Dual-Glo luciferase) for GPR40 agonistic activity in co-transfected HEK293T cells; assay type: cell-based; details: 4-hour treatment
# T1 construct: Flag; expressed in transfected cells; host or cells: HEK293T
# In short: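 Agonism read as NFAT-RE-driven firefly luciferase over Renilla control (Dual-Glo) after 4 h compound exposure, top concentration 1 µM, 10 half-log steps.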
# [2] = system: normal C57BL6/J mice; experiment: Oral glucose tolerance test (OGTT) in normal C57BL6/J mice; assay type: in vivo; details: 1 mg/kg gavage, single dose; for AUC 0-120 minutes: blood glucose AUC
# Method: Eighteen normal male C57BL6/J mice (8-9 weeks old) were selected and randomly divided into 3 groups based on body weight and blood glucose levels, with 6 mice in each group. On the day of the OGTT, fasting was initiated at 8:30 AM. At 11:30 AM, drug interventions were administered via gavage (vehicle control, compound 14, 1 mg/kg, and compound 169, 1 mg/kg). At 1:30 PM, glucose (2 g/kg) was administered via gavage, while the blank control group received the vehicle control orally (2% DMSO + 15% solutol + 83% DDW solution) at a dosing volume of 10 mL/kg. Blood glucose measurements during the OGTT were taken at the following time points: 0, 15, 30, 60, 90, and 120 minutes after glucose administration.
# Blood glucose levels were measured at 0, 15, 30, 60, and 120 minutes after glucose administration. The area under the curve (AUC) for blood glucose over 120 minutes was calculated. [formula]
# Note: BG0, BG15, BG30, BG60, BG90, and BG120 represent the blood glucose levels at 0, 15, 30, 60, 90, and 120 minutes after glucose administration, respectively.
# (§1) Data were expressed as mean ± standard deviation. One-way ANOVA was employed for statistical analysis, with p < 0.05 considered statistically significant.
# [3] = system: C57BL6/J mice; experiment: In vivo pharmacodynamic assay for non-alcoholic fatty liver disease (high-fat, high-cholesterol, high-fructose diet mice); details: for Hepatic Hydroxyproline / Total Liver Hydroxyproline (µg/liver): liver; for ALT (U/L) / AST (U/L): serum
# Method: Normal male C57BL6/J mice ([…]) were fed a high-fat, high-cholesterol, high-fructose diet (D09100310, Research Diets) for 20 weeks. Based on body weight and biochemical data, the mice were randomly divided into groups, with 6 mice per group. The compound 169 (0.03, 0.1, and 0.6 mg/kg) was administered via oral gavage. The positive control was MGL3196 (1 mg/kg), and the blank control group consisted of mice of the same strain and age fed a normal diet for the same duration. The blank control and model control groups were given the vehicle (15% solutol + 85% DDW), totaling 6 groups. Administration was performed once daily for 28 days. After overnight fasting, on day 29 at the experimental endpoint, blood was collected from the heart after CO2 euthanasia. Serum ALT and AST biochemical indicators were measured, and liver tissue was harvested for hepatic hydroxyproline content determination.
# Blood was collected using anticoagulant-free tubes, allowed to stand at room temperature for 30 minutes, and then centrifuged at 4000 rpm for 10 minutes to separate serum, which was tested by Dian Diagnostics. Approximately 50 mg of liver tissue was taken from each mouse and tested according to the hydroxyproline assay kit method (Nanjing Jiancheng, Cat. No.: A030-2-1).
# as §1
# [4] = 0.03 mpk oral gavage once daily for 28 days
# [5] = 0.1 mpk oral gavage once daily for 28 days
# [6] = 0.6 mpk oral gavage once daily for 28 days
# T1 sequence (O14842 whole entry): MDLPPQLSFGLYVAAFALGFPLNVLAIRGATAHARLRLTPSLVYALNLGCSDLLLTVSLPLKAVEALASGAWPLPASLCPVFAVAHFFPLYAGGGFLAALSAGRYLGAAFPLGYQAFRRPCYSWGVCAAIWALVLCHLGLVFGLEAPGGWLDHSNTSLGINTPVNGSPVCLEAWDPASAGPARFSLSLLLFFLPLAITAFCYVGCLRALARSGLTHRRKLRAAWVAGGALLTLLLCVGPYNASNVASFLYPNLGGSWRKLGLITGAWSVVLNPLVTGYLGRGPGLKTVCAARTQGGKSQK
structure (smiles),measurement,setting,value
COc1ccc(F)c(N2CCC(c3oc4cc([C@@H](CC(=O)O)C5CC5)ccc4c3-c3ccc(C(C)(C)C)cc3)CC2)c1 [Compound 169],EC50,[1],100 to 500 nM
same,Efficacy (%),[1]; class symbols,††† (Efficacy (%) > 150)
same,Blood Glucose,[2]; 0 minutes after glucose (2 g/kg),7.88 ± 0.62 mmol/L
same,Blood Glucose,[2]; 15 minutes after glucose (2 g/kg),12.78 ± 1.65 mmol/L
same,Blood Glucose,[2]; 30 minutes after glucose (2 g/kg),9.28 ± 1.32 mmol/L
same,Blood Glucose,[2]; 60 minutes after glucose (2 g/kg),9.28 ± 1.32 mmol/L
same,Blood Glucose,[2]; 90 minutes after glucose (2 g/kg),7.67 ± 2.31 mmol/L
same,Blood Glucose,[2]; 120 minutes after glucose (2 g/kg),7.13 ± 1.25 mmol/L
same,AUC 0-120 minutes,[2]; 1 mg/kg,1075±66.01
same,AUC 0-120 minutes,"[2]; listed as compound 169, 1 mg/kg",significantly reduced
same,Hepatic Hydroxyproline,[3]; [4],128.06 ± 55.18 µg/g
same,Total Liver Hydroxyproline (µg/liver),[3]; [4],308.56±121.44 µg/liver
same,ALT (U/L),[3]; [4],148±81.95 U/L
same,AST (U/L),[3]; [4],204.5±79.09 U/L
same,Hepatic Hydroxyproline,[3]; [5],119.16 ± 39.65 µg/g
same,Total Liver Hydroxyproline (µg/liver),[3]; [5],266.4±80.67 µg/liver
same,ALT (U/L),[3]; [5],110±37.12 U/L
same,AST (U/L),[3]; [5],156±30.59 U/L
same,Hepatic Hydroxyproline,[3]; [6],85.24 ± 47.63 µg/g
same,Total Liver Hydroxyproline (µg/liver),[3]; [6],187.94±110.56 µg/liver
same,ALT (U/L),[3]; [6],103.8±35.53 U/L
same,AST (U/L),[3]; [6],163.2±42.98 U/L
same,liver protection and liver fibrosis inhibition effects,"[3]; doses of 0.03, 0.1, and 0.6 mg/kg, compared with the model control","reduced ALT, AST, and liver hydroxyproline levels"
